In one test the test system is Rat neutrophils. Description: Elastase production by fMLP stimulation (elastase release inhibition). The conditions noted are these: elastase release from cytochalasin B-primed rat neutrophils, fMLP 1 μM, 10 minutes preincubation. It is filed as cell-based. On the procedure:
Test for Elastase Production by fMLP (N-formyl-Met-Leu-Phe)Stimulation
Rat neutrophils preparation was obtained 15-18 hours after intraperitoneal injection of a 1% sterile casein solution in saline (120 mL/kg). Cells were harvested by peritoneal lavage after the decapitation. The lavage fluid was ice-cold PBS (Phosphate-Buffered Saline). Peritoneal exudates were pooled, centrifuged and suspended in HBSS (Hanks' Balanced Salt Solution) at 1×10^7 cells/mL. Cytochalasin B (final concentration: 5 μg/mL) were added to prime the cells. The cells were added into a 96-well culture plate (190 μL/well) and then the compounds of the present invention at various concentrations (10^−7 to 3×10^−5 M) were added and incubated at 37° C. in an atmosphere of 5% CO2 in air. […]
Elastase activity in the incubated supernatant was measured using a specific elastase substrate, N-succinyl-L-alanyl-L-alanyl-L-proline-valine-MCA (Peptide Institue, Inc., Osaka), 0.12 mM in 50 mM Tris-HCl (pH 8.0). […]
Elastase release-inhibiting activity (inhibition ratio) was calculated according to the following equation: Inhibition ratio (%) […]×100 wherein A stands for a fluorescence intensity when fMLP (1 μM) was added; B stands for a fluorescence intensity when fMLP (1 μM) and the present compound were added; and C stands for a fluorescence intensity when fMLP (1 μM) was not added. […]

For a further test, the system named is rat t-MCAo model. Put plainly: Infarct volume in rat transient MCA occlusion (t-MCAo) model. Particulars: 0.1 mg/kg/min, intravenous 1 hour infusion immediately after reperfusion; 71 hrs after reperfusion; vs vehicle-treated group, p<0.05 Dunnett's test. It is filed as in vivo, Wistar rats. As to the method:
FIG. 1 represents an effect of compound 33 on infarct volume in rat t-MCAo model.
The infract volumes of total (open column), cortex (closed column) and subcortex (hatched column) were determined 71 hrs after reperfusion. Data are presented as mean±SEM. *p<0.05 vs vehicle-treated group (Dunnett's test).
Effect on the Infarct Volume in Rat Transient MCA Occlusion (t-MCAo) Model.
Adult male Wistar rats (200-250 g) were anesthetized with 2% halothane in air. The right internal carotid artery (ICA) was carefully dissected. A silicon-coated suture (18 mm-long) was inserted into the ICA. Body temperature was maintained at 37° C. with a heating pad. […] After 1 hour of MCA occlusion, the thread was removed to allow reperfusion of the ischemic area. Rats were received intravenously 1 hour-infusion of vehicle (10% of HP-β-CD) or compound 33 dissolved in vehicle immediately after reperfusion.
To measure infarct volume, rats were killed at 71 hours of reperfusion. Brains were perfused transcardially with physiological saline, and removed from skulls, cut into 2-mm coronal sections. The slices were immersed in 2% triphenyltetrazolium chloride (TTC) solution at 37° C. for 30 minutes. All values were presented as mean±SEM. For statistical analyses, Dunnett's multiple-range test was used.

In turn, `CCCC[C@@H](O)/C=C\CCCCCCC/C=C\CCCS(=O)(=O)O` [Compound 23, Sodium (R)-(4Z, 13Z)-15-hydroxynonadeca-1,13-diene-1-sulfonate] showed an IC50 in the test on Rat neutrophils of 9.67 µM.

In the case of `CCCC[C@@H](O)/C=C\CCCCCCCCCCCCS(=O)(=O)[O-].[Na+]` [Compound 33, Sodium (R)-(Z)-15-hydroxynonadec-13-ene-1-sulfonate], in the test on rat t-MCAo model, the cortex infarct volume result is given as “significantly reduced” and the total infarct volume entry was “significantly reduced”. The molecule further had an IC50 in the test on Rat neutrophils (Neutrophil) of 15 µM.

The IC50 is the concentration that inhibits the measured activity by half. A lower IC50 goes with higher potency.

For the origin of these results see patent US20050020680A1, “Hydroxyfattysulfonic acid analogs” (priority 2001, published 2005).
